In ChEMBL document CHEMBL3576853, “Discovery of InhA inhibitors with anti-mycobacterial activity through a matched molecular pair approach” (Eur J Med Chem, 2015):

Legend:
[1] = test system: Mycobacterium tuberculosis; assay: Inhibition of Mycobacterium tuberculosis recombinant InhA assessed as enzyme activity measured as NADH oxidation using 2-trans-decenyl CoA as substrate at 50 uM by TECAN spectrophotometer analysis; design: scale not given: the % may be the effect or the level left
[2] = test system: MDCK; assay: Cytotoxicity against dog MDCK cells at 50 uM after 1 day by WST-8 assay; assay type: cell-based, Canis lupus familiaris; details: 24 h
[3] = test system: Escherichia coli; assay: Toxicity against Escherichia coli JM109 assessed as bacterial growth inhibition at 50 uM after 8 hrs by microplate reader analysis; assay type: organism-based; details: in vivo
[4] = test system: Escherichia coli; assay: Toxicity against Escherichia coli BL21 assessed as bacterial growth inhibition at 50 uM after 8 hrs by microplate reader analysis
[5] = test system: Mycolicibacterium smegmatis; assay: Anti-mycobacterial activity against Mycobacterium smegmatis assessed as bacterial growth inhibition after 24 hrs by microplate reader analysis; assay type: functional, organism-based
[6] = test system: SH-SY5Y; assay: Cytotoxicity against human SH-SY5Y cells at 50 uM after 2 days by WST-8 assay; assay type: cell-based; details: 48 h

For `O=C(c1ccccc1)N1CCN(Cc2cccc(Oc3ccccc3)c2)CC1`, the Activity [1] was 21.9%, the Activity [2] was “Non-toxic” and the Activity [3] was “Non-toxic”. The Activity [4] was “Non-toxic” and the IC50 [5] was 22.9 µM.
For `O=C(O)C(=O)O.O=C(c1cccnc1)N1CCN(Cc2cccc(Oc3ccccc3)c2)CC1`, the Activity [1] was 34%, the Activity [2] was “Non-toxic” and the Activity [3] was “Non-toxic”. The Activity [4] was “Non-toxic”.
With `Sc1nnc(-c2ccco2)n1/N=C/c1cccc(Oc2ccccc2)c1` the Activity [1] was 53.5%, the Activity [2] was “Non-toxic” and the Activity [3] was “Non-toxic”. For the same compound, the Activity [4] was “Non-toxic”.
In the case of `O=C(O)C(=O)O.O=C(c1ccccc1F)N1CCN(Cc2cccc(Oc3ccccc3)c2)CC1`, the Activity [1] is reported as 21.9%, the Activity [2] is reported as “Non-toxic” and the Activity [3] is reported as “Non-toxic”. For the same compound, the Activity [4] was “Non-toxic” and the IC50 [5] was 17.3 µM.
`COc1cccc(C(=O)N2CCN(Cc3cccc(Oc4ccccc4)c3)CC2)c1OC` was tested, and the Activity [1] was 65.1%, the Activity [2] was “Non-toxic” and the Activity [3] was “Non-toxic”. For the same compound, the Activity [4] was “Non-toxic” and the IC50 [5] was 28.1 µM.
`O=C(c1cccc(Oc2ccccc2)c1)N1CCN(C(=O)c2ccco2)CC1` was tested, and the Activity [1] was 69.3%, the Activity [2] was “Non-toxic” and the Activity [3] was “Non-toxic”. The Activity [4] was “Non-toxic”.
For `COc1ccc(OCC(=O)N2CCN(Cc3cccc(Oc4ccccc4)c3)CC2)cc1`, the Activity [1] was 44.7%, the Activity [2] was “Non-toxic” and the Activity [6] was “Toxic”. For the same compound, the Activity [3] was “Non-toxic” and the Activity [4] was “Non-toxic”.
With `O=C(Cc1ccccc1)N1CCN(Cc2cccc(Oc3ccccc3)c2)CC1` the Activity [1] was 65.6%, the Activity [2] was “Non-toxic” and the Activity [3] was “Non-toxic”. For the same compound, the Activity [4] was “Non-toxic”.
With `O=C(c1ccco1)N1CCN(Cc2cccc(Oc3ccccc3)c2)CC1` the Activity [1] was 65.1% and the IC50 [5] was 12 µM.
For `NNC(=O)c1ccncc1` [ISONIAZID], the IC50 [5] was 9.8 µM.
With `COc1ccccc1C(=O)N1CCN(Cc2cccc(Oc3ccccc3)c2)CC1.O=C(O)C(=O)O` the Activity [1] was 37.7%, the Activity [2] was “Non-toxic” and the Activity [3] was “Non-toxic”. The Activity [4] was “Non-toxic” and the IC50 [5] was 25.7 µM.
With `O=C(COc1ccccc1)N1CCN(Cc2cccc(Oc3ccccc3)c2)CC1` the Activity [1] was 69.3%, the Activity [2] was “Non-toxic” and the Activity [3] was “Non-toxic”. The Activity [4] was “Non-toxic” and the IC50 [5] was 21.4 µM.
Compound `Oc1cc(Cl)ccc1Oc1ccc(Cl)cc1Cl` has an Activity [1] of 16.3%.
